One compound from patent US7838659B2, “Herpesvirus ribozymes and vectors” (priority 2003, dated 2010) can be followed below.

Assay type in all cases: cell-based
Test [1] relates to HSV-1 17syn+ (drug sensitive). In words: Multi-step replication, comparison with acyclovir, strain 17syn+. The conditions noted are these: MOI 10^−3, 48 hours, rabbit skin cells. As for the experimental part:
(§1) Four groups were included when testing the impact of the ribozyme on replication of drug resistant HSV-1 strains: mock infection and Ad-UL20 Rz treatments were performed as before; an adenovirus expressing GFP was used instead of ψ5; and an acyclovir (ACV) treatment (0.1 μM) was included. The dosage of acyclovir was determined by the threshold dose needed to distinguish drug resistance of HSV-1 (Thi, T. N., C. Deback, I. Malet, P. Bonnafous, Z. Ait-Arkoub, and H. Agut. 2006. Rapid determination of antiviral drug susceptibility of herpes simplex virus types 1 and 2 by real-time PCR. Antiviral Res 69:152-7). Forty-eight hours were allowed for HSV-1 infection to develop before cell lysates were harvested for titration. Five HSV-1 strains were tested: 17syn+ and KOS are drug sensitive strains, and PAAr5, tkLTRZ1, and ACG^r4 are drug resistant isolates.
(§2) UL20-Rz154 inhibits viral replication of HSV-1 drug resistant strains. Ad-UL20 Rz154 was compared with acyclovir treatment in a multi-step infection at an MOI of 10^−3. […] In the case of PAAr5 infection, UL20 ribozyme reduced viral production by 99%; against tkLTRZ1 infection, it reduced virus yield by 76%; and against ACGr4 by 70%. Therefore, knocking down the expression of the UL20 gene led to a significant inhibition of HSV-1 viral replication in viral strains that were resistant to a conventional antiviral drug.

In test [2] the test system is HSV-1 KOS (drug sensitive). In words: Multi-step replication, comparison with acyclovir, strain KOS. Conditions: MOI 10^−3, 48 hours, rabbit skin cells. As for the experimental part:
as §1, §2

The test system of test [3] is HSV-1 PAAr5 (drug resistant). In words: Multi-step replication, comparison with acyclovir, strain PAAr5. Conditions: strain PAAr5, MOI 10^−3, 48 hours, rabbit skin cells. As for the experimental part:
as §1, §2

The subject of test [4] is HSV-1 tkLTRZ1 (drug resistant). The test is described as follows: Multi-step replication, comparison with acyclovir, strain tkLTRZ1. The conditions noted are these: strain tkLTRZ1, MOI 10^−3, 48 hours, rabbit skin cells. As for the experimental part: as §1, §2
In test [5] the test system is HSV-1 ACGr4 (drug resistant). In words: Multi-step replication, comparison with acyclovir, strain ACGr4. The conditions noted are these: strain ACGr4, MOI 10^−3, 48 hours, rabbit skin cells. How it is done:
as §1, §2

On to `Nc1nc2c(ncn2COCCO)c(=O)[nH]1` [acyclovir], for which the figures for the “inhibition of HSV-1 viral production” value in test [1] and in test [2] were 99% and 80%, respectively. In test [3], the “reduction of viral production” value is given as “no significant difference in HSV yields”. The “reduction of virus yield” value in test [4] and in test [5] was “no significant difference in HSV yields” each time.
